For experiment [1], the target named is ERα (Homo sapiens (Human), UniProt P03372). Nature of the experiment: Degradation effect of compounds on ERα in MCF-7 and CAMA-1 cells (automated western blot, 24 h). In kind it is cell-based. To be noted: ERα degradation in MCF-7 cells; for DC50: 24 hours; for Dmax at 0.1 µM: MCF7, @100 nM. How it is done:
2. Degradation Effect of Compounds on ERα in MCF-7 and CAMA-1 Cells
Breast cancer cells MCF-7 and CAMA-1 were purchased from ATCC, the cell media were all EMEM+10% FBS, and the cells were cultured in an incubator at 37° C. under 5% CO2. On the first day, the cells in an exponential phase were collected. With a 10% css-FBS phenol red-free medium, the cell suspension was adjusted to a corresponding concentration, plated at 300000 cells/well and incubated for 3 days. After 3 days, the liquid in the well was aspirated, and a 10% css-FBS phenol red-free medium containing the compound to be tested was added and cultured in an incubator at 37° C. under 5% CO2. After 24 hours, 60 μl of RIPA lysis solution (containing 1× protease inhibitor cocktail) was added to each well, lysed on ice for 15 minutes, and then centrifuged at 4° C. for 10 minutes at 12000 g. The supernatant protein samples were collected, and protein quantification was performed by a BCA method. ERα was detected using fully automatic protein expression quantitative analysis, which involved diluting the protein to be tested to 1.5 mg/mL. 4 μL of the diluted protein samples were added to 1 μL of 5×Master Mix (provided in the kit), and the prepared samples were denatured at 95° C. for 5 min and placed on ice for use. Antibody Diluent II (provided in the kit) was used to dilute the primary antibody, in which the dilution ratios of ERα (CST, 13258S) and β-actin (CST, 3700) antibodies were 1:40 and 1:500, respectively, the secondary antibody was a 1:1 mixture of goat anti-mouse and goat anti-rabbit secondary antibodies, and the chromogenic solution was a 1:1 mixture of Lumino-S and Peroxide. The prepared reagents were successively added to an assay plate according to instructions of the kit and detected on an instrument. Western blot band processing was performed using “Compass for SW”, a fully automatic protein expression quantitative analysis software, in which western blot bands were automatically simulated based on signal values. The proportion of ERα relative to the solvent control at different drug concentrations according to equation (1), wherein Acompound was the relative peak area of ERα in the treated group, and Asolvent was the relative peak area of ERα in the solvent control group.
ERα%=Acompound/Asolvent×100 equation (1)
DC50 calculation: Calculation was performed according to equation (1), and using Graphpad Prism 8.0 software, the compound concentration DC50 values at which the degradation rate of ERα was 50% were calculated using a non-linear four-parameter function (Non linear regression (curve fit)) (Table 1).

Experiment [2] has as its system MCF-7 cells. Put plainly: Inhibitory effect of compounds on the proliferation of MCF-7 cells (CellTiter-Glo, 7 days). In kind it is cell-based. To be noted: Homo sapiens, MCF7, 168 h, 7 days incubation. How it is done: 1. Inhibitory Effect of Compounds on the Proliferation of MCF-7 Cells
Breast cancer cells MCF-7 were purchased from ATCC, the cell media were all EMEM+10% FBS, and the cells were cultured in an incubator at 37° C. under 5% CO2. On the first day, cells in the exponential growth phase were collected and cultured in a 10% css-FBS phenol red-free medium without cytokines for 3 days. After the completion of culture, a 10% css-FBS phenol red-free medium was used to adjust the cell suspension to the corresponding concentration and same was plated to 1000 cells/well. P-estradiol and compounds of different concentrations were added. A plate without adding any reagent was taken and used as Day0 with a reading value RLUday0, determined with CellTiter-Glo kit, placed in an incubator and incubated for 7 days. After the incubation was completed, according to operation instructions for a CellTiter-Glo kit (Promega, G7573), 50 μL of CellTiter-Glo solutions, which were pre-melted and equilibrated to room temperature, were added to each well, and the mixtures were uniformly mixed for 2 min using a microplate shaker. The plate was placed at room temperature for 10 min, and then […] signal values were measured using a microplate reader (PHERAstar FSX). Chemiluminescence readouts were processed using origin9.2 software and the DoseResp function was used to calculate the GIsovalue for the inhibitory activity of compounds on the proliferation of cells (Table 1). The results were processed according to equation (1), the inhibition rate of the compound at different concentrations was calculated, and the GI50 value of the compound with a proliferation rate of 50% was calculated using origin9.2 software, wherein RLUcompound was the readout of the treated group, and RLUcontrol was the average value of the solvent control group.
Growth %=(RLUcompound−RLUday0)/(RLUcontrol−RLUday0)×100 equation (1)

The subject of experiment [3] is ER. To be noted: clinical samples; cited from earlier work.

One may read the DC50 as the concentration giving 50% degradation. A high value points to degradation only at high concentration. The Dmax is the largest share of the target that was removed. Lower therefore signals shallow degradation. The GI50 is the concentration at which growth is held to half of that of the control. Low readings indicate greater sensitivity of the cells, high ones lower sensitivity of the cells.

Sequence of ERα (P03372 whole entry): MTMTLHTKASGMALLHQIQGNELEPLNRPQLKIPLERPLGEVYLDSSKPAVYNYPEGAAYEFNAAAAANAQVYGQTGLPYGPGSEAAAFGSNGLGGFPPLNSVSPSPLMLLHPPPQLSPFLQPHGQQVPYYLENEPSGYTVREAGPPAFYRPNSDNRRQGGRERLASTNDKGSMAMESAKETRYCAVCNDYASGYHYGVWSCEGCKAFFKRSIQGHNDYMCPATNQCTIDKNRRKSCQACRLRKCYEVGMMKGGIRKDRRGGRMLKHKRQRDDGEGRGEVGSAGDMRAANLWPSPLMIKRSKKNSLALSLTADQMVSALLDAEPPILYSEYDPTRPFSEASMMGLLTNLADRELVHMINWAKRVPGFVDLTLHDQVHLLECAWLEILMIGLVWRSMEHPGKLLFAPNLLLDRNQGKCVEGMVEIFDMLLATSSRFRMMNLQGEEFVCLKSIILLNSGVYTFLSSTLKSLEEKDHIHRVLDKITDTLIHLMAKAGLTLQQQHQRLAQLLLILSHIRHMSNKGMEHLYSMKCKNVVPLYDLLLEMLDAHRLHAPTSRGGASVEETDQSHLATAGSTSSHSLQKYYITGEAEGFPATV

For `CC1Cc2c([nH]c3cc4c(cc23)CC4)C(c2c(F)cc(NC3CN(CCCF)C3)cc2F)N1CC(F)(F)F` (single isomer, unassigned) [Compound 22-1, N-(3,5-difluoro-4-(3-methyl-2-(2,2,2-trifluoroethyl)-2,3,4,6,7,9-hexahydro-1H-cyclobuta[f]pyrido[3,4-b]indol-1-yl)phenyl)-1-(3-fluoropropyl)azetidin-3-amine], in experiment [1], the DC50 came to 1.13 nM and the Dmax at 0.1 µM stood at 69%.

In experiment [1], `Cc1ccc2c3c([nH]c2c1)[C@@H](c1c(F)cc(N[C@H]2CCN(CCCF)C2)cc1F)N(CC(F)(F)CO)[C@H](C)C3` [Compound 8, 3-((1R,3R)-1-(2,6-difluoro-4-(((S)-1-(3-fluoropropyl)pyrrolidin-3-yl)amino)phenyl)-3,7-dimethyl-1,3,4,9-tetrahydro-2H-pyrido[3,4-b]indol-2-yl)-2,2-difluoropropan-1-ol] showed a half-maximal degradation concentration (DC50) of 0.594 nM and a Dmax at 0.1 µM of 70%.

As for `C[C@@H]1Cc2c([nH]c3cccc(F)c23)[C@@H](c2c(F)cc(N[C@H]3CCN(CCCF)C3)cc2F)N1CC(F)(F)CO` [Compound 15, 3-((1R,3R)-1-(2,6-difluoro-4-(((S)-1-(3-fluoropropyl)pyrrolidin-3-yl)amino)phenyl)-5-fluoro-3-methyl-1,3,4,9-tetrahydro-2H-pyrido[3,4-b]indol-2-yl)-2,2-difluoropropan-1-ol], in experiment [1], it took 0.447 nM to reach half-maximal degradation (DC50) and the Dmax at 0.1 µM was found to be 72%.

Turning to `C[C@@H]1Cc2c([nH]c3cc(F)ccc23)[C@@H](c2c(F)cc(N[C@H]3CCN(CCCF)C3)cc2F)N1CC(F)(F)CO` [Compound 31, 3-((1R,3R)-1-(2,6-difluoro-4-(((S)-1-(3-fluoropropyl)pyrrolidin-3-yl)amino)phenyl)-7-fluoro-3-methyl-1,3,4,9-tetrahydro-2H-pyrido[3,4-b]indol-2-yl)-2,2-difluoropropan-1-ol], in experiment [1], the half-maximal degradation concentration (DC50) is 0.244 nM and the maximal degradation (Dmax) at 0.1 µM was 77%.

In experiment [1], `C[C@@H]1Cc2c([nH]c3cc(F)c(F)cc23)[C@@H](c2c(F)cc(N[C@H]3CCN(CCCF)C3)cc2F)N1CC(F)(F)CO` [Compound 35, 3-((1R,3R)-1-(2,6-difluoro-4-(((S)-1-(3-fluoropropyl)pyrrolidin-3-yl)amino)phenyl)-6,7-difluoro-3-methyl-1,3,4,9-tetrahydro-2H-pyrido[3,4-b]indol-2-yl)-2,2-difluoropropan-1-ol] yielded a DC50 of 0.269 nM and a Dmax at 0.1 µM of 68%. The concentration for 50% growth inhibition (GI50) in experiment [2] is less than 0.026 nM.

In experiment [1], `C[C@@H]1Cc2c([nH]c3ccc(F)cc23)[C@@H](c2c(F)cc(N[C@H]3CCN(CCCF)C3)cc2F)N1CC(F)(F)CF` [Compound 38, (S)—N-(3,5-difluoro-4-((1R,3R)-6-fluoro-3-methyl-2-(2,2,3-trifluoropropyl)-2,3,4,9-tetrahydro-1H-pyrido[3,4-b]indol-1-yl)phenyl)-1-(3-fluoropropyl)pyrrolidin-3-amine] came in with a DC50 of 1.7 nM and a Dmax at 0.1 µM of 72%. The GI50 in experiment [2] is less than 0.026 nM.

For `Cc1ccc2[nH]c3c(c2c1)C[C@@H](C)N(CC(F)(F)CO)[C@@H]3c1c(F)cc(N[C@H]2CCN(CCCF)C2)cc1F` [Compound 49, 3-((1R,3R)-1-(2,6-difluoro-4-(((S)-1-(3-fluoropropyl)pyrrolidin-3-yl)amino)phenyl)-3,6-dimethyl-1,3,4,9-tetrahydro-2H-pyrido[3,4-b]indol-2-yl)-2,2-difluoropropan-1-ol], in experiment [1], it took 0.726 nM to reach half-maximal degradation (DC50) and the Dmax at 0.1 µM amounted to 70%. Further, in experiment [2], the concentration for 50% growth inhibition (GI50) was less than 0.026 nM.

In experiment [1], `C#Cc1ccc2c3c([nH]c2c1)[C@@H](c1c(F)cc(NC2CN(CCCF)C2)cc1F)N(CC(F)(F)F)[C@H](C)C3` [Compound 51, N-(4-((1R,3R)-7-ethynyl-3-methyl-2-(2,2,2-trifluoroethyl)-2,3,4,9-tetrahydro-1H-pyrido[3,4-b]indol-1-yl)-3,5-difluorophenyl)-1-(3-fluoropropyl)azetidin-3-amine] displayed a DC50 of 0.712 nM and a maximal degradation (Dmax) at 0.1 µM of 68%.

Take `C[C@]12CC[C@@H]3c4ccc(O)cc4C[C@@H](CCCCCCCCC[S+]([O-])CCCC(F)(F)C(F)(F)F)[C@H]3[C@@H]1CC[C@@H]2O` (some centres unmarked) [Fulvestrant]: the ER degradation entry in experiment [3] was “approximately 50%”.
